Test results reported in patent publication EP1192182B1, “PITUITARY ADENYLATE CYCLASE ACTIVATING PEPTIDE (PACAP) RECEPTOR 3 (R3) AGONISTS AND THEIR PHARMACOLOGICAL METHODS OF USE” (priority 1999, dated 2001).
Positions of bridges follow the written chain, without caps; N, C: chain ends. Non-standard residues stand in square brackets, D forms with d. Residues, ends and D or L forms follow the SMILES beside them. Nle = CCCC[C@H](N)C(=O)O

What was measured:
[1] = Intraperitoneal glucose tolerance test (IPGTT), plasma glucose; assay type: in vivo, Wistar rats; conditions: plasma glucose area under the curve after IPGTT (1 g/kg glucose), % of vehicle; 1 nmol/kg peptide i.v.
Description: Wistar rats are fasted overnight and then anesthetized with pentobarbital. The rats were eye-bled (zero time) and the peptide ( in 1% human albumin) was injected into the tail vein. Five minutes later, 1 g/kg of glucose (in saline) was injected intraperitoneally, and the rats were eye-bled after 15, 30 and 60 minutes. Plasma glucose levels were determined using the Technicon Axon autoanalyzer, Bayer Diagnosics division of Bayer Corporation, Tarrytown NY, operated using Method No. SM4-2143F90 "Glucose".
In accordance with the protocol of example 2 above, overnight fasted Wistar rats were anesthetized with pentobarital; i.v. injected with glucose ± peptide and eye bled after 1 minute. N=12 rats/group. […] The peptide or vehicle was given i.v. followed by a glucose load given i.p. in accordance with example 3. The plasma glucose was followed over the time period indicated.
Wistar rats were fasted overnight and then anesthetized with Pentobarbital. The rats were eye-bled (zero time) and the peptide (in 1 % human albumin) was injected subcutaneously. Five minutes later, 1 g/kg of glucose (in saline) was injected intraperitoneally, and the rats were eye-bled after 30 minutes.
Plasma glucose: Data are expressed as % of vehicle of plasma glucose area under the curve after IPGTT (1 g/kg glucose) after treatment with 1 nmol/kg dose of the peptide. […] The present Inventors have shown for the first time that this is because the effects of R2 and R3 on glucose tend to cancel each other out. […] Therefore, R3-selectlvlty appears to be a desirable attribute for medicaments which are to be employed in achieving blood glucose reduction, for treatment of type 2 diabetes.

rat islets = experiment: Insulin release from isolated rat islets; assay type: cell-based, Sprague-Dawley rats; conditions: peptide 10nM for 2hrs, 8mM glucose; % of [insulin] in 8mM glucose alone
Description: Sprague Dawley rats (275-320 g) were used as the source of donor islets. Briefly, the pancreas was filled with 10 ml of cold reconstituted Liberase RI (Boehringer Manheim), harvested and incubated with additional 5 ml enzyme solution in water bath for 30 minutes. Tissue suspension was washed twice with cold 10% FBS/Hanks buffer (Gibco), resuspended in 8 ml 25% ficoll (Sigma) and then layered with 5 ml each of 23%, 20% and 11 % ficoll. The islets in the 20% layer after centrifugation were removed, washed twice with cold 10% FBS/Hank buffer and resuspended in 10% FBS/RPMI 1640 media (Sigma).
Islet insulin release: Rat islets were isolated from Sprague-Dawley rats as described in example 1 and treated with either vehicle or specified peptide (10nM) for 2hrs. Insulin concentration in the medium was measured with the Linco rat insulin RIA kit. Glucose concentration in the medium was 8mM. The data are expressed as % of [insulin] in 8mM glucose alone. No polypeptide-induced Increases in insulin concentration were observed al 3 mM glucose; thus, the insulin releasing activity of these polypeptides are glucose-dependent. It should be noted that the following Table includes data for polypeptides which are not part of the present invention.

[2] = system: guinea pig tracheal smooth muscle; conditions: Bolin et al 1995; US 5,677,419; cited from earlier work
[3] = Airway hyperresponsiveness in the primate acute asthma model; assay type: in vivo, cynomolgus monkeys (Macaca fascicularis)
Description: Male cynomolgus monkeys (Macaca fascicularis) used in this study were maintained at constant temperature and humidity, with a twelve hour light cycle. They were fed twice daily, except on an experimental day when food was withheld the night before the procedure. Water was available ad lib at all times.
Airway hyperresponsiveness (AHR)(baseline) was measured 1 week before the control (no treatment) antigen challenge, and again 24hrs after antigen challenge. Antigen-induced airway hyperresponsiveness was measured by a fall in the PC100 (the concentration of methacholine required to cause a 100% increase in lung resistance) at 24hr compared to baseline. After 2 weeks rest, another baseline measurement of AHR was performed. […] AHR was again measured, and the fall in PC100 with treatment was compared to that without treatment. […]
The endotracheal tube was connected to a Harvard Ventilator adjusted to deliver 30-35 breaths per minute. Airflow was measured by a Fleisch pneumotachograph and thoracic pressure was measured by a validyne pressure transducer (as the difference between the pressure at the distal end of the et tube and room pressure). […]
Antigen challenge: This was an inhalation challenge with Ascaris suum. […] 30 breaths of antigen were administered after which the acute bronchoconstriction was monitored for 15min. […]

PACAP-R3 = target: T1, PACAP-R3 (Homo sapiens, UniProt P41587); conditions: literature; cited from earlier work
T1 sequence (P41587 24-438): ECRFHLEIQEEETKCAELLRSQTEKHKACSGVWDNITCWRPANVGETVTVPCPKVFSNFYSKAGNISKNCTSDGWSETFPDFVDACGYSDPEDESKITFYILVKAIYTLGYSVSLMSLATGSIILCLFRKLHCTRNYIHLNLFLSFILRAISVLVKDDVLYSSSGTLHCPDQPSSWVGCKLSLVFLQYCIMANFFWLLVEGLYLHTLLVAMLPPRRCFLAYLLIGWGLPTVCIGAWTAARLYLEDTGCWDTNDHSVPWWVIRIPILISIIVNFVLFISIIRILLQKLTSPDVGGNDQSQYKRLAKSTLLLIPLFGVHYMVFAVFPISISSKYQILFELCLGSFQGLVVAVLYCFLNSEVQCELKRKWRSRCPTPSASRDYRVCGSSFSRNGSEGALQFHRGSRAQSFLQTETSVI

For `CCCC[C@H](NC(=O)[C@H](CCC(N)=O)NC(=O)[C@H](CCCCN)NC(=O)[C@H](CCCNC(=N)N)NC(=O)[C@H](CC(C)C)NC(=O)[C@H](CCCCN)NC(=O)[C@@H](NC(=O)[C@H](Cc1ccc(O)cc1)NC(=O)[C@H](CC(N)=O)NC(=O)[C@H](CCC(=O)O)NC(=O)[C@@H](NC(=O)[C@H](Cc1ccccc1)NC(=O)[C@@H](NC(=O)[C@H](C)NC(=O)[C@H](CC(=O)O)NC(=O)[C@H](CO)NC(=O)[C@H](Cc1c[nH]cn1)NC(C)=O)C(C)C)[C@@H](C)O)[C@@H](C)O)C(=O)N[C@@H](C)C(=O)N[C@@H](C)C(=O)N[C@@H](CCCCN)C(=O)N[C@H]1CCCCNC(=O)C[C@@H](C(=O)N[C@@H](CC(C)C)C(=O)N[C@@H](CCCCN)C(=O)N[C@@H](CCCCN)C(=O)NCC(=O)NCC(=O)N[C@H](C(N)=O)[C@@H](C)O)NC(=O)[C@H](CC(N)=O)NC(=O)[C@H](CC(C)C)NC(=O)[C@H](Cc2ccc(O)cc2)NC1=O` [Peptide R3P0] (Ac-HSDAVFTENYTKLRKQ[Nle]AAKKYLNDLKKGGT-NH2; lactam 21-25 (inferred)), the “Plasma Glucose (% of Basal) i.v.” value [1] is given as 77 % of Basal, the “Islet Insulin Release (% of Basal)” value (rat islets) is given as 264 % of Basal and the “relaxing guinea pig tracheal smooth muscle” value [2] is given as “active”. For the same compound, the “Delta log10 PC100, Mean, Treated” value ([3]; 0.6ug/mg aerosol 10 minutes before antigen challenge, +24hr minus baseline, N 4) was -0.150, the “% Inhibition of induced AHR” value ([3]; 0.6ug/mg aerosol, P(Treated vs Control) 0.240) was 54% and the PACAP-R3 selectivity (PACAP-R3) was “greater than 100 fold”.
